This is an account of results in patent US9546168B2, “ERK inhibitors” (Merck Sharp & Dohme Corp., priority 2013, dated 2017).

Structures are written as SMILES.

For the assay, the target named is phosphorylated active hERK2 enzyme (Homo sapiens (Human), UniProt P28482). Nature of the assay: Active Human ERK2 (hERK2) Activity Assay (IMAP-FP). Format: biochemical. Particulars: 0.5 nM hERK2, 30 μM ATP, 10 point titration. Here is the method: Active Human ERK2 (hERK2) Activity Assay:
Activated ERK2 activity was determined in an IMAP-FP assay (Molecular Devices). Using this assay format, the potency (IC50) of each compound was determined from a 10 point (1:3 serial dilution, 3 μM starting compound concentration) titration curve using the following outlined procedure. […] Following a 15 minute compound & enzyme incubation, each reaction was initiated by the addition of 10 μL kinase buffer containing 2.45 μM ERK2 IMAP substrate peptides and 75 μM ATP. The final reaction in each well of 25 μL consists of 0.5 nM hERK2, 900 nM unlabeled peptide, 80 nM labeled-peptide, and 30 μM ATP. Phosphorylation reactions were allowed to proceed for 60 minutes and were immediately quenched by the addition of 60 μL IMAP detection beads (1:1000 dilutions) in IMAP binding buffer (Molecular Devices) with 24 mM NaCl. Plates were read on EnVision reader after 60 minutes binding equilibration using Fluorescence Polarization protocol (Perkin Elmer).

Chain of phosphorylated active hERK2 enzyme (P28482 whole entry): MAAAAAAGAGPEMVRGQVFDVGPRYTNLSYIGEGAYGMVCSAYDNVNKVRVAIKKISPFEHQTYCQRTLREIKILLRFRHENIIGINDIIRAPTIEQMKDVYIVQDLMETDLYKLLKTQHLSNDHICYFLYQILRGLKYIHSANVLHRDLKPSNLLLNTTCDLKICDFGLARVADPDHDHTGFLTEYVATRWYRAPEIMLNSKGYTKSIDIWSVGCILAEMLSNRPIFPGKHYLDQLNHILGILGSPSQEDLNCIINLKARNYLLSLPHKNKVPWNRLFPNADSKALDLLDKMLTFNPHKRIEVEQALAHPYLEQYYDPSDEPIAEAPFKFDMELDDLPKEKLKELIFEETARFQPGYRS

As to `Cc1cc(-c2n[nH]c3cc(NC(=O)N[C@H](C)c4ccccc4)nc(C)c23)ccn1` [Example 1, (R)-1-(4-Methyl-3-(2-methylpyridin-4-yl)-1H-pyrazolo[4,3-c]pyridin-6-yl)-3-(1-phenylethyl)urea], the IC50 (usually the point on the concentration scale where inhibition reaches its midpoint) worked out at 0.37 nM.

`Cc1nc(NC(=O)N[C@H](C)c2ccccc2)cc2[nH]nc(-c3ccnc(F)c3)c12` [Example 2, 1-[3-(2-fluoropyridin-4-yl)-4-methyl-1H-pyrazolo[4,3-c]pyridin-6-yl]-3-[(1R)-1-phenylethyl]urea] showed a concentration for half-maximal inhibition (IC50) of 1.24 nM.

Take `C[C@@H](NC(=O)Nc1cc2[nH]nc(-c3ccnc(F)c3)c2c(CO)n1)c1ccccc1` [Example 3, (R)-1-(3-(2-fluoropyridin-4-yl)-4-(hydroxymethyl)-1H-pyrazolo[4,3-c]pyridin-6-yl)-3-(1-phenylethyl)urea]: the IC50 came out at 0.92 nM.

As for `Cc1cc(-c2n[nH]c3cc(NC(=O)N[C@H](C)c4ccccc4)nc(CO)c23)ccn1` [Example 4, (R)-1-(4-(hydroxymethyl)-3-(2-methylpyridin-4-yl)-1H-pyrazolo[4,3-c]pyridin-6-yl)-3-(1-phenylethyl)urea], the midpoint of inhibition, the IC50, lay at 0.39 nM.

For `C[C@@H](NC(=O)Nc1cc2[nH]nc(C3CC3)c2c(CO)n1)c1ccccc1` [Example 5, (R)-1-(3-cyclopropyl-4-(hydroxymethyl)-1H-pyrazolo[4,3-c]pyridin-6-yl)-3-(1-phenylethyl)urea], inhibition was half-maximal at 0.72 nM (IC50).

`CC(C)(O)[C@@H](NC(=O)Nc1cc2[nH]nc(C3CC3)c2c(CO)n1)c1ccccc1` [Example 6, 1-[3-cyclopropyl-4-(hydroxymethyl)-1H-pyrazolo[4,3-c]pyridin-6-yl]-3-[(1S)-2-hydroxy-2-methyl-1-phenylpropyl]urea] registered an IC50 of 4.34 nM.

Turning to `CC(C)(O)[C@@H](NC(=O)Nc1cc2[nH]nc(C3CC3)c2c(CO)n1)c1ccc(F)cc1` [Example 7, 1-[3-cyclopropyl-4-(hydroxymethyl)-1H-pyrazolo[4,3-c]pyridin-6-yl]-3-[(1S)-1-(4-fluorophenyl)-2-hydroxy-2-methylpropyl]urea], the IC50 amounted to 0.83 nM.

Turning to `C[C@@H](O)[C@@H](NC(=O)Nc1cc2[nH]nc(C3CC3)c2c(CO)n1)c1ccccc1` [Example 9, 1-[3-cyclopropyl-4-(hydroxymethyl)-1H-pyrazolo[4,3-c]pyridin-6-yl]-3-[(1S,2R)-2-hydroxy-1-phenylpropyl]urea], the IC50 was 0.75 nM.

The compound `Cc1cc(-c2n[nH]c3cc(NC(=O)N[C@H](COC(F)F)c4ccccc4)nc(CO)c23)ccn1` [Example 10, 1-[(1S)-2-(difluoromethoxy)-1-phenylethyl]-3-[4-(hydroxymethyl)-3-(2-methylpyridin-4-yl)-1H-pyrazolo[4,3-c]pyridin-6-yl]urea] had an IC50 of 0.66 nM.

The compound `C[C@@H](NC(=O)Nc1cc2[nH]nc(-c3ccc(F)cc3)c2c(CO)n1)c1ccccc1` [Example 11, 1-[3-(4-fluorophenyl)-4-(hydroxymethyl)-1H-pyrazolo[4,3-c]pyridin-6-yl]-3-[(1R)-1-phenylethyl]urea] showed an IC50 of 0.45 nM.

Turning to `C[C@@H](NC(=O)Nc1cc2[nH]nc(-c3ccnc(C#N)c3)c2c(CO)n1)c1ccccc1` [Example 12, 1-[3-(2-cyanopyridin-4-yl)-4-(hydroxymethyl)-1H-pyrazolo[4,3-c]pyridin-6-yl]-3-[(1R)-1-phenylethyl]urea], the IC50 is 1.64 nM.

In the case of `CC(C)(O)[C@@H](NC(=O)Nc1cc2[nH]nc(-c3ccc(F)cc3)c2c(CO)n1)c1ccccc1` [Example 13, 1-[3-(4-fluorophenyl)-4-(hydroxymethyl)-1H-pyrazolo[4,3-c]pyridin-6-yl]-3-[(1S)-2-hydroxy-2-methyl-1-phenylpropyl]urea], the IC50 worked out at 0.31 nM.

On to `CC(C)(O)[C@@H](NC(=O)Nc1cc2[nH]nc(-c3ccc(F)cc3)c2c(CO)n1)c1ccc(F)cc1` [Example 15, 1-[(1S)-1-(4-fluorophenyl)-2-hydroxy-2-methylpropyl]-3-[3-(4-fluorophenyl)-4-(hydroxymethyl)-1H-pyrazolo[4,3-c]pyridin-6-yl]urea], for which the IC50 amounted to 0.29 nM.

In turn, `CC(C)(C)[C@@H](NC(=O)Nc1cc2[nH]nc(-c3ccc(F)cc3)c2c(CO)n1)c1ccccc1` [Example 17, 1-[(1R)-2,2-dimethyl-1-phenylpropyl]-3-[3-(4-fluorophenyl)-4-(hydroxymethyl)-1H-pyrazolo[4,3-c]pyridin-6-yl]urea] showed an IC50 of 8.64 nM.

The compound `CC(C)(O)[C@@H](NC(=O)Nc1cc2[nH]nc(-c3ccccc3)c2c(CO)n1)c1ccccc1` [Example 18, 1-[(1S)-2-hydroxy-2-methyl-1-phenylpropyl]-3-[4-(hydroxymethyl)-3-phenyl-1H-pyrazolo[4,3-c]pyridin-6-yl]urea] yielded an IC50 of 0.37 nM.

Take `CC(C)(O)[C@@H](NC(=O)Nc1cc2[nH]nc(-c3ccc(C#N)cc3)c2c(CO)n1)c1ccccc1` [Example 19, 1-[3-(4-cyanophenyl)-4-(hydroxymethyl)-1H-pyrazolo[4,3-c]pyridin-6-yl]-3-[(1S)-2-hydroxy-2-methyl-1-phenylpropyl]urea]: the IC50 was found to be 0.53 nM.

For the compound `COCc1nc(NC(=O)N[C@H](C)c2ccccc2)cc2[nH]nc(-c3ccnc(C)c3)c12` [Example 20, (R)-1-(4-(Methoxymethyl)-3-(2-methylpyridin-4-yl)-1H-pyrazolo[4,3-c]pyridin-6-yl)-3-(1-phenylethyl)urea], it took 1.13 nM to reach half-maximal inhibition (IC50).

`Cc1nc(NC(=O)N[C@@H](c2ccccc2)C(C)(C)O)cc2[nH]nc(C(F)F)c12` [Example 21, (S)-1-(3-(difluoromethyl)-4-methyl-1H-pyrazolo[4,3-c]pyridin-6-yl)-3-(2-hydroxy-2-methyl-1-phenylpropyl)urea]: the IC50 is 0.61 nM.

`CC(C)(O)[C@@H](NC(=O)Nc1cc2[nH]nc(C(F)F)c2c(CO)n1)c1ccccc1` [Example 22, (S)-1-(3-(difluoromethyl)-4-(hydroxymethyl)-1H-pyrazolo[4,3-c]pyridin-6-yl)-3-(2-hydroxy-2-methyl-1-phenylpropyl)urea] came in with an IC50 of 0.75 nM.

Consider `CC(C)(O)[C@@H](NC(=O)Nc1cc2[nH]nc(C(F)F)c2c(CO)n1)c1ccc(F)cc1` [Example 23, 1-[3-(difluoromethyl)-4-(hydroxymethyl)-1H-pyrazolo[4,3-c]pyridin-6-yl]-3-[(1S)-1-(4-fluorophenyl)-2-hydroxy-2-methylpropyl]urea], for which half-maximal inhibition (IC50) required 0.49 nM.

For `C[C@@H](NC(=O)Nc1cc2[nH]nc(C(F)F)c2c(CO)n1)c1ccccc1` [Example 24, 1-[3-(difluoromethyl)-4-(hydroxymethyl)-1H-pyrazolo[4,3-c]pyridin-6-yl]-3-[(1R)-1-phenylethyl]urea], half-maximal inhibition (IC50) was put at 1.25 nM.

In the case of `C[C@@H](NC(=O)Nc1cc2[nH]nc(CO)c2c(CO)n1)c1ccccc1` [Example 25, (R)-1-(3,4-bis(hydroxymethyl)-1H-pyrazolo[4,3-c]pyridin-6-yl)-3-(1-phenylethyl)urea], half-maximal inhibition (IC50) was put at 1.85 nM.

As for `CC(=O)c1n[nH]c2cc(NC(=O)N[C@H](C)c3ccccc3)nc(CO)c12` [Example 26, (R)-1-(3-acetyl-4-(hydroxymethyl)-1H-pyrazolo[4,3-c]pyridin-6-yl)-3-(1-phenylethyl)urea], 12.7 nM corresponded to half-maximal inhibition (IC50).

`CC(O)c1n[nH]c2cc(NC(=O)N[C@H](C)c3ccccc3)nc(CO)c12` (stereo partly drawn) [Example 27, 1-(3-(1-hydroxyethyl)-4-(hydroxymethyl)-1H-pyrazolo[4,3-c]pyridin-6-yl)-3-((R)-1-phenylethyl)urea] registered an IC50 of 5.52 nM.

For `CC(F)(F)c1n[nH]c2cc(NC(=O)N[C@@H](c3ccccc3)C(C)(C)O)nc(CO)c12` [Example 28, (S)-1-(3-(1,1-difluoroethyl)-4-(hydroxymethyl)-1H-pyrazolo[4,3-c]pyridin-6-yl)-3-(2-hydroxy-2-methyl-1-phenylpropyl)urea], the IC50 was found to be 14.1 nM.

In the case of `C[C@@H](NC(=O)Nc1cc2[nH]nc(C(F)(F)F)c2c(CO)n1)c1ccccc1` [Example 29, (R)-1-(4-(hydroxymethyl)-3-(trifluoromethyl)-1H-pyrazolo[4,3-c]pyridin-6-yl)-3-(1-phenylethyl)urea], inhibition was half-maximal at 13.2 nM (IC50).
